No end group written: not given here.
Molecular target: T1, SNORF72 (Homo sapiens, UniProt Q9GZQ4, A395T)
T1 construct: expressed in transfected cells; host or cells: COS-7 (transient, DEAE-dextran)
Test: Displacement of [125I]rat NMU-23 binding in SNORF72-transfected COS-7 membranes
Settings: binding affinity, SNORF72-transfected COS-7 cells (Table 1A); read-out: SNORF72 Avg Ki
Procedure: The specifics of preparing such cell membranes may in some cases be determined by the nature of the ensuing assay but typically involve harvesting whole cells and disrupting the cell pellet by sonication in ice cold buffer (e.g. 20 mM Tris HCl, mM EDTA, pH 7.4 at 4° C.). The resulting crude cell lysate is cleared of cell debris by low speed centrifugation at 200×g for 5 min at 4° C. The cleared supernatant is then centrifuged at 40,000×g for 20 min at 4° C., and the resulting membrane pellet is washed by suspending in ice cold buffer and repeating the high speed centrifugation step. The final washed membrane pellet is resuspended in assay buffer. Protein concentrations are determined by the method of Bradford (1976) using bovine serum albumin as a standard. The membranes may be used immediately or frozen for later use.
Radioligand binding assays were performed by diluting membranes prepared from cells expressing the receptor in 50 mM Tris buffer (pH=7.4 at 0° C.) containing 0.1% bovine serum albumin (Sigma), aprotinin (0.005 mg/ml, Boehringer Mannheim) and bestatin (0.1 mM, Sigma) as protease inhibitors. The final protein concentration in the assay was 12–40 μg/ml. […] The bound ligand was separated from free by filtration through GF/B filters presoaked in 0.5% polyethyleneimine (PEI), using a Tomtec (Wallac) vacuum filtration device. After addition of Ready Safe (Beckman) scintillation fluid, bound radioactivity was quantitated using a Trilux (Wallac) scintillation counter (approximately 40% counting efficiency of bound counts). Data was fit to non-linear curves using GraphPad Prism.
In this manner, agonist or antagonist compounds that bind to the receptor may be identified as they inhibit the binding of the labeled ligand to the membrane protein of cells expressing the said receptor. Non-specific binding was defined as the amount of radioactivity remaining after incubation of membrane protein in the presence of 100 nM of the unlabeled peptide corresponding to the radioligand used. In equilibrium saturation binding assays membrane preparations or intact cells transfected with the receptor are incubated in the presence of increasing concentrations of the labeled compound to determine the binding affinity of the labeled ligand.

FRVDEEFQSPFASQSRGYFLFRPRN-NH2 [human NMU-25, FRVDEEFQSPFASQSRGYFLFRPRN—NH2]
Ki: 3 nM

Reference: patent publication US7029857B1, “Processes for obtaining compounds employing SNORF72 receptors” (H. Lundbeck A/S, priority 1999, dated 2006)
